Here are results for one compound from ChEMBL document CHEMBL5728196, “Phenylate derivative, preparation method therefor, and pharmaceutical composition and uses thereof” (2021).

In this assay the target is Programmed cell death protein 1/Programmed cell death 1 ligand 1 (Homo sapiens, UniProt Q15116+Q9NZQ7). Description: Inhibitory Activity Assay: 1. In vitro activity evaluation: Cisbio PD-1/PD-L1 binding assay kit was applied for the detection method of in vitro enzymology level.Screening Principles and Methods of PD-1/PD-L1 Small Molecule Inhibitors1) Principle: PD-1 protein is with HIS tag, and PD-1 ligand PD-L1 is with hFc tag. Eu labeled anti-hFc antibody and XL665 labeled anti-HIS antibody are combined with the above two label proteins respectively. After laser excitation, energy can be transferred from donor Eu to receptor XL665, allowing XL665 to glow. […] Reagents should be dispensed in the following order. For 384-well white ELISA plate, 2 μl of diluent or target compound diluted with diluent was added to each well, and then 4 μl of PD-1 protein and 4 μl of PD-L1 protein were added per well, incubated for 15 min at room temperature; and 10 μl of a mixture of anti-Tag1-Eu3+ and anti-Tag2-XL665 was added per well and incubated for 1 h to 4 h at room temperature and the fluorescence signals at 665 nm and 620 nm were measured with an Envison instrument. HTRF rate=(665 nm/620 nm)*104. 8-10 concentrations were detected for each compound and IC50 was calculated by Graphpad software. It counts as protein-complex assay.
Programmed cell death protein 1/Programmed cell death 1 ligand 1, sequence (Q15116 whole entry): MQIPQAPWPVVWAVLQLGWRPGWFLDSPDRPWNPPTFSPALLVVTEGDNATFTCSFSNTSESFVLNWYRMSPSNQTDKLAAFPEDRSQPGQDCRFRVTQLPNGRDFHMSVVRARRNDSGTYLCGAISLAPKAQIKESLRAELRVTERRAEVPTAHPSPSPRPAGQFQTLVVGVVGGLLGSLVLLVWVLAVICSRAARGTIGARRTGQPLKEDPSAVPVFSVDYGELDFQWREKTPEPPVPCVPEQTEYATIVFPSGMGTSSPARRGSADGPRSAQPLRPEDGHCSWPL
Programmed cell death protein 1/Programmed cell death 1 ligand 1, sequence (Q9NZQ7 whole entry): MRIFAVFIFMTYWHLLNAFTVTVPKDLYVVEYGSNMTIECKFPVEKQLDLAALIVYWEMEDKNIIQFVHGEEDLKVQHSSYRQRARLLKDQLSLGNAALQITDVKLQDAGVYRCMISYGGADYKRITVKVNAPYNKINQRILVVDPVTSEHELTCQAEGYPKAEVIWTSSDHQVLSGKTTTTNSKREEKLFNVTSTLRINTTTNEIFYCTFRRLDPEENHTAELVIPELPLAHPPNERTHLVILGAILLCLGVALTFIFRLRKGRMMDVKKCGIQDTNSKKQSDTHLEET

As a reminder, the IC50 is the concentration needed to halve the response being measured. `NC(=O)COc1cc(OCc2cccc(-c3ccc4c(c3)OCCO4)c2Br)c(Cl)cc1CN1C[C@@H](O)C[C@H]1C(=O)O`: the IC50 is 182 nM.
